Data taken from patent US6552196B2, “Quinolone carboxylic acid derivatives” (Dong Wha Pharmaceutical Industrial Co., Ltd., priority 1997, dated 2003).
Values after ≈ are worked out from the molar mass of the structure shown.

Experiments:
Type in all cases: cell-based
[1] = tested on: Enterobacter clocae 1321E; test: In vitro antibacterial activity (MIC), agar dilution; conditions: 2-fold agar dilution, Muller-Hinton agar, 18 hours at 37° C., read-out: minimum inhibitory concentration (MIC)
Protocol: (§1) 10^7 cfu/ml of bacteria were inoculated and cultured for 18 hours at 37° C. and then the antibacterial activities were measured. For the methicillin resistant strains the activities were measured after 48 hours of cultivation at 30° C. Hoechst Standard strains were used for the testings.

Enterobacter clocae P99 = test: as above; conditions: 2-fold agar dilution, Muller-Hinton agar, 18 hours at 37° C., read-out: minimum inhibitory concentration (MIC)
Protocol: as §1

Esherichia coli 078 = test: as above; conditions: 2-fold agar dilution, Muller-Hinton agar, 18 hours at 37° C., read-out: minimum inhibitory concentration (MIC)
Protocol: as §1

Esherichia coli 1507E = test: as above; conditions: 2-fold agar dilution, Muller-Hinton agar, 18 hours at 37° C., read-out: minimum inhibitory concentration (MIC)
Protocol: as §1

Esherichia coli DC0 = test: as above; conditions: 2-fold agar dilution, Muller-Hinton agar, 18 hours at 37° C., read-out: minimum inhibitory concentration (MIC)
Protocol: as §1

Esherichia coli TEM = test: as above; conditions: 2-fold agar dilution, Muller-Hinton agar, 18 hours at 37° C., read-out: minimum inhibitory concentration (MIC)
Protocol: as §1

[2] = tested on: Klebsiella aerogenes 1522E; test: as above; conditions: 2-fold agar dilution, Muller-Hinton agar, 18 hours at 37° C., read-out: minimum inhibitory concentration (MIC)
Protocol: as §1

Klebsiella oxytoca 1082E = test: as above; conditions: 2-fold agar dilution, Muller-Hinton agar, 18 hours at 37° C., read-out: minimum inhibitory concentration (MIC)
Protocol: as §1

[3] = tested on: Pseudomonas aeruginosa 1592E; test: as above; conditions: 2-fold agar dilution, Muller-Hinton agar, 18 hours at 37° C., read-out: minimum inhibitory concentration (MIC)
Protocol: as §1

[4] = tested on: Pseudomonas aeruginosa 1771M; test: as above; conditions: Pseudomonas aeruginosa, 1771M, 18 h, read-out: minimum inhibitory concentration (MIC)
Protocol: as §1

[5] = tested on: Pseudomonas aeruginosa 1771; test: as above; conditions: 2-fold agar dilution, Muller-Hinton agar, 18 hours at 37° C., read-out: minimum inhibitory concentration (MIC)
Protocol: as §1

[6] = tested on: Pseudomonas aeruginosa 9027; test: as above; conditions: 2-fold agar dilution, Muller-Hinton agar, 18 hours at 37° C., read-out: minimum inhibitory concentration (MIC)
Protocol: as §1

Salmonella typhimurium = test: as above; conditions: Salmonella enterica, 2-fold agar dilution, Muller-Hinton agar, 18 hours at 37° C., read-out: minimum inhibitory concentration (MIC)
Protocol: as §1

[7] = tested on: Staphylococcus aureus 285; test: as above; conditions: 2-fold agar dilution, Muller-Hinton agar, 18 hours at 37° C., read-out: minimum inhibitory concentration (MIC)
Protocol: as §1

[8] = tested on: Staphylococcus aureus 503; test: as above; conditions: 2-fold agar dilution, Muller-Hinton agar, 18 hours at 37° C., read-out: minimum inhibitory concentration (MIC)
Protocol: as §1

[9] = tested on: Staphylococcus aureus SG511; test: as above; conditions: 2-fold agar dilution, Muller-Hinton agar, 18 hours at 37° C., read-out: minimum inhibitory concentration (MIC)
Protocol: as §1

[10] = tested on: Streptococcus faecium MD 8b; test: as above; conditions: Enterococcus faecium, MD8B, 2-fold agar dilution, Muller-Hinton agar, 18 hours at 37° C., read-out: minimum inhibitory concentration (MIC)
Protocol: as §1

[11] = tested on: Streptococcus pyogens 308A; test: as above; conditions: 2-fold agar dilution, Muller-Hinton agar, 18 hours at 37° C., read-out: minimum inhibitory concentration (MIC)
Protocol: as §1

[12] = tested on: Streptococcus pyogens 77A; test: as above; conditions: 2-fold agar dilution, Muller-Hinton agar, 18 hours at 37° C., read-out: minimum inhibitory concentration (MIC)
Protocol: as §1

[13] = tested on: Staphylococcus aureus 121E; test: In vitro antibacterial activity against resistant strains (MIC); conditions: resistant strain Staphylococcus aureus 121E; 2-fold agar dilution; methicillin resistant strains 48 hours at 30° C.; read-out: minimum inhibitory concentration (MIC)
Protocol: as §1

[14] = tested on: Staphylococcus aureus 179; test: as above; conditions: resistant strain Staphylococcus aureus 179; 2-fold agar dilution; methicillin resistant strains 48 hours at 30° C.; read-out: minimum inhibitory concentration (MIC)
Protocol: as §1

[15] = tested on: Staphylococcus aureus 208E; test: as above; conditions: resistant strain Staphylococcus aureus 208E; 2-fold agar dilution; methicillin resistant strains 48 hours at 30° C.; read-out: minimum inhibitory concentration (MIC)
Protocol: as §1

[16] = tested on: Staphylococcus aureus 241; test: as above; conditions: resistant strain Staphylococcus aureus 241; 2-fold agar dilution; methicillin resistant strains 48 hours at 30° C.; read-out: minimum inhibitory concentration (MIC)
Protocol: as §1

[17] = tested on: Staphylococcus aureus 256E; test: as above; conditions: resistant strain Staphylococcus aureus 256E; 2-fold agar dilution; methicillin resistant strains 48 hours at 30° C.; read-out: minimum inhibitory concentration (MIC)
Protocol: as §1

[18] = tested on: Staphylococcus aureus 293; test: as above; conditions: resistant strain Staphylococcus aureus 293; 2-fold agar dilution; methicillin resistant strains 48 hours at 30° C.; read-out: minimum inhibitory concentration (MIC)
Protocol: as §1

[19] = tested on: Staphylococcus aureus 303; test: as above; conditions: resistant strain Staphylococcus aureus 303; 2-fold agar dilution; methicillin resistant strains 48 hours at 30° C.; read-out: minimum inhibitory concentration (MIC)
Protocol: as §1

[20] = tested on: Staphylococcus aureus 690E; test: as above; conditions: resistant strain Staphylococcus aureus 690E; 2-fold agar dilution; methicillin resistant strains 48 hours at 30° C.; read-out: minimum inhibitory concentration (MIC)
Protocol: as §1

[21] = tested on: Staphylococcus aureus 692E; test: as above; conditions: resistant strain Staphylococcus aureus 692E; 2-fold agar dilution; methicillin resistant strains 48 hours at 30° C.; read-out: minimum inhibitory concentration (MIC)
Protocol: as §1

[22] = tested on: Staphylococcus aureus 693E; test: as above; conditions: resistant strain Staphylococcus aureus 693E; 2-fold agar dilution; methicillin resistant strains 48 hours at 30° C.; read-out: minimum inhibitory concentration (MIC)
Protocol: as §1

[23] = tested on: Staphylococcus aureus 694E; test: as above; conditions: resistant strain Staphylococcus aureus 694E; 2-fold agar dilution; methicillin resistant strains 48 hours at 30° C.; read-out: minimum inhibitory concentration (MIC)
Protocol: as §1

[24] = tested on: Staphylococcus aureus 695E; test: as above; conditions: resistant strain Staphylococcus aureus 695E; 2-fold agar dilution; methicillin resistant strains 48 hours at 30° C.; read-out: minimum inhibitory concentration (MIC)
Protocol: as §1

[25] = tested on: Staphylococcus aureus 697E; test: as above; conditions: resistant strain Staphylococcus aureus 697E; 2-fold agar dilution; methicillin resistant strains 48 hours at 30° C.; read-out: minimum inhibitory concentration (MIC)
Protocol: as §1

[26] = tested on: Staphylococcus aureus 701E; test: as above; conditions: resistant strain Staphylococcus aureus 701E; 2-fold agar dilution; methicillin resistant strains 48 hours at 30° C.; read-out: minimum inhibitory concentration (MIC)
Protocol: as §1

[27] = tested on: Staphylococcus aureus 703E; test: as above; conditions: resistant strain Staphylococcus aureus 703E; 2-fold agar dilution; methicillin resistant strains 48 hours at 30° C.; read-out: minimum inhibitory concentration (MIC)
Protocol: as §1

[28] = tested on: Staphylococcus aureus 8236; test: as above; conditions: resistant strain Staphylococcus aureus 8236; 2-fold agar dilution; methicillin resistant strains 48 hours at 30° C.; read-out: minimum inhibitory concentration (MIC)
Protocol: as §1

[29] = tested on: Staphylococcus aureus 88E; test: as above; conditions: resistant strain Staphylococcus aureus 88E; 2-fold agar dilution; methicillin resistant strains 48 hours at 30° C.; read-out: minimum inhibitory concentration (MIC)
Protocol: as §1

[30] = tested on: Staphylococcus epidermidis 178; test: as above; conditions: resistant strain Staphylococcus epidermidis 178; 2-fold agar dilution; methicillin resistant strains 48 hours at 30° C.; read-out: minimum inhibitory concentration (MIC)
Protocol: as §1

[31] = tested on: Staphylococcus epidermidis 291; test: as above; conditions: resistant strain Staphylococcus epidermidis 291; 2-fold agar dilution; methicillin resistant strains 48 hours at 30° C.; read-out: minimum inhibitory concentration (MIC)
Protocol: as §1

CON=C1CN(c2c(F)c(N)c3c(=O)c(C(=O)O)cn(C4CC4)c3c2F)CC12CN(C)C2 [Example 11, 1-Cyclopropyl-5-amino-6,8-difluoro-7-[8-(methoxyimino)-2-methyl-2,6-diazaspiro[3,4]oct-6-yl]-4-oxo-1,4-dihydro-3-quinolinecarboxylic acid]
MIC [1]: 0.004 µg/mL (≈ 0.00894 µM) | MIC (Enterobacter clocae P99): 0.013 µg/mL (≈ 0.0291 µM) | MIC (Esherichia coli 078): < 0.002 µg/mL | MIC (Esherichia coli 1507E): 0.013 µg/mL (≈ 0.0291 µM) | MIC (Esherichia coli DC0): 0.098 µg/mL (≈ 0.219 µM) | MIC (Esherichia coli TEM): 0.013 µg/mL (≈ 0.0291 µM) | MIC [2]: 0.049 µg/mL (≈ 0.11 µM) | MIC (Klebsiella oxytoca 1082E): < 0.002 µg/mL | MIC [3]: 0.781 µg/mL (≈ 1.75 µM) | MIC [4]: 0.391 µg/mL (≈ 0.874 µM) | MIC [5]: 0.781 µg/mL (≈ 1.75 µM) | MIC [6]: 0.781 µg/mL (≈ 1.75 µM) | MIC (Salmonella typhimurium): 0.007 µg/mL (≈ 0.0156 µM) | MIC [7]: 0.007 µg/mL (≈ 0.0156 µM) | MIC [8]: 0.004 µg/mL (≈ 0.00894 µM) | MIC [9]: < 0.002 µg/mL | MIC [10]: 0.049 µg/mL (≈ 0.11 µM) | MIC [11]: 0.013 µg/mL (≈ 0.0291 µM) | MIC [12]: 0.004 µg/mL (≈ 0.00894 µM) | MIC [13]: 0.013 µg/mL (≈ 0.0291 µM) | MIC [14]: 0.195 µg/mL (≈ 0.436 µM) | MIC [15]: 0.013 µg/mL (≈ 0.0291 µM) | MIC [16]: 0.195 µg/mL (≈ 0.436 µM) | MIC [17]: 0.007 µg/mL (≈ 0.0156 µM) | MIC [18]: 0.195 µg/mL (≈ 0.436 µM) | MIC [19]: 0.195 µg/mL (≈ 0.436 µM) | MIC [20]: 0.007 µg/mL (≈ 0.0156 µM) | MIC [21]: 0.007 µg/mL (≈ 0.0156 µM) | MIC [22]: 0.013 µg/mL (≈ 0.0291 µM) | MIC [23]: 0.013 µg/mL (≈ 0.0291 µM) | MIC [24]: 0.013 µg/mL (≈ 0.0291 µM) | MIC [25]: 0.004 µg/mL (≈ 0.00894 µM) | MIC [26]: 0.013 µg/mL (≈ 0.0291 µM) | MIC [27]: 0.013 µg/mL (≈ 0.0291 µM) | MIC [28]: 0.195 µg/mL (≈ 0.436 µM) | MIC [29]: 0.007 µg/mL (≈ 0.0156 µM) | MIC [30]: 0.781 µg/mL (≈ 1.75 µM) | MIC [31]: 0.781 µg/mL (≈ 1.75 µM)

C[C@@H]1CN(c2c(F)c(N)c3c(=O)c(C(=O)O)cn(C4CC4)c3c2F)C[C@H](C)N1 [Sparfloxacin, sparfloxacin, reference compound]
MIC [1]: 0.004 µg/mL (≈ 0.0102 µM) | MIC (Enterobacter clocae P99): 0.007 µg/mL (≈ 0.0178 µM) | MIC (Esherichia coli 078): 0.004 µg/mL (≈ 0.0102 µM) | MIC (Esherichia coli 1507E): 0.025 µg/mL (≈ 0.0637 µM) | MIC (Esherichia coli DC0): 0.195 µg/mL (≈ 0.497 µM) | MIC (Esherichia coli TEM): 0.013 µg/mL (≈ 0.0331 µM) | MIC [2]: 0.025 µg/mL (≈ 0.0637 µM) | MIC (Klebsiella oxytoca 1082E): < 0.002 µg/mL | MIC [3]: 0.781 µg/mL (≈ 1.99 µM) | MIC [4]: 0.195 µg/mL (≈ 0.497 µM) | MIC [5]: 0.781 µg/mL (≈ 1.99 µM) | MIC [6]: 0.781 µg/mL (≈ 1.99 µM) | MIC (Salmonella typhimurium): 0.007 µg/mL (≈ 0.0178 µM) | MIC [7]: 0.049 µg/mL (≈ 0.125 µM) | MIC [8]: 0.049 µg/mL (≈ 0.125 µM) | MIC [9]: 0.098 µg/mL (≈ 0.25 µM) | MIC [10]: 0.391 µg/mL (≈ 0.996 µM) | MIC [11]: 0.391 µg/mL (≈ 0.996 µM) | MIC [12]: 0.195 µg/mL (≈ 0.497 µM) | MIC [13]: 0.098 µg/mL (≈ 0.25 µM) | MIC [14]: 6.25 µg/mL (≈ 15.9 µM) | MIC [15]: 0.098 µg/mL (≈ 0.25 µM) | MIC [16]: 6.25 µg/mL (≈ 15.9 µM) | MIC [17]: 0.098 µg/mL (≈ 0.25 µM) | MIC [18]: 6.25 µg/mL (≈ 15.9 µM) | MIC [19]: 3.12 µg/mL (≈ 7.96 µM) | MIC [20]: 0.049 µg/mL (≈ 0.125 µM) | MIC [21]: 0.049 µg/mL (≈ 0.125 µM) | MIC [22]: 0.049 µg/mL (≈ 0.125 µM) | MIC [23]: 0.098 µg/mL (≈ 0.25 µM) | MIC [24]: 0.049 µg/mL (≈ 0.125 µM) | MIC [25]: 0.049 µg/mL (≈ 0.125 µM) | MIC [26]: 0.098 µg/mL (≈ 0.25 µM) | MIC [27]: 0.098 µg/mL (≈ 0.25 µM) | MIC [28]: 6.25 µg/mL (≈ 15.9 µM) | MIC [29]: 0.098 µg/mL (≈ 0.25 µM) | MIC [30]: 6.25 µg/mL (≈ 15.9 µM) | MIC [31]: 6.25 µg/mL (≈ 15.9 µM)
